Measured values as given in US6124269A, “2-Halo-6-O-substituted ketolide derivatives” (priority 1998, dated 2000).
Converted amounts (≈) assume the structure as drawn. Blank lines part the entries; values can stand above or below the molecule they belong to.

Legend:
Type in all cases: cell-based
[1] = test system: Staphylococcus aureus A-5278; test: In vitro agar dilution MIC, organism code CC; details: unit assumed
Experimental: (§1) Representative compounds of the present invention were assayed in vitro for antibacterial activity as follows: Twelve petri dishes containing successive aqueous dilutions of the test compound mixed with 10 mL of sterilized Brain Heart Infusion (BHI) agar (Difco 0418-01-5) were prepared. Each plate was inoculated with 1:100 (or 1:10 for slow-growing strains, such as Micrococcus and Streptococcus) dilutions of up to 32 different microorganisms, using a Steers replicator block. The inoculated plates were incubated at 35-37° C. for 20 to 24 hours. In addition, a control plate, using BHI agar containing no test compound, was prepared and incubated at the beginning and end of each test.
(§2) An additional plate containing a compound having known susceptibility patterns for the organisms being tested and belonging to the same antibiotic class as the test compound was also prepared and incubated as a further control, as well as to provide test-to-test comparability.
(§3) After incubation, each plate was visually inspected. The minimum inhibitory concentration (MIC) was defined as the lowest concentration of drug yielding no growth, a slight haze, or sparsely isolated colonies on the inoculum spot as compared to the growth control.

[2] = test system: Micrococcus luteus ATCC 9341; test: In vitro agar dilution MIC, organism code OO; details: Table 1B, unit assumed
Experimental: as §1, §2, §3

[3] = test system: Streptococcus pyogenes EES61; test: In vitro agar dilution MIC, organism code LL; details: unit assumed
Experimental: as §1, §2, §3

[4] = test system: Mycobacterium smegmatis ATCC 114; test: In vitro agar dilution MIC, organism code UU; details: Table 1B, in µg/mL (unit assumed)
Experimental: as §1, §2, §3

[5] = test system: Streptococcus pneumoniae 5979; test: In vitro agar dilution MIC, organism code ZZ; details: unit assumed
Experimental: as §1, §2, §3

[6] = test system: Enterococcus faecium ATCC 8043; test: In vitro agar dilution MIC, organism code II; details: Table 1B, unit assumed
Experimental: as §1, §2, §3

[7] = test system: Streptococcus bovis A-5169; test: In vitro agar dilution MIC, organism code JJ; details: Table 1B, unit assumed
Experimental: as §1, §2, §3

[8] = test system: Streptococcus pneumoniae 5649; test: In vitro agar dilution MIC, organism code ZZA; details: unit assumed
Experimental: as §1, §2, §3

[9] = test system: Staphylococcus aureus CMX 642A; test: In vitro agar dilution MIC, organism code DD; details: Table 1B, unit assumed
Experimental: as §1, §2, §3

[10] = test system: Staphylococcus aureus ATCC 6538P; test: In vitro agar dilution MIC, organism code AA; details: unit assumed
Experimental: as §1, §2, §3

[11] = test system: Streptococcus agalactiae CMX 508; test: In vitro agar dilution MIC, organism code KK; details: Table 1B, unit assumed
Experimental: as §1, §2, §3

[12] = test system: Staphylococcus epidermidis 3519; test: In vitro agar dilution MIC, organism code HH; details: Table 1B, in µg/mL (unit assumed)
Experimental: as §1, §2, §3

Escherichia coli JUHL = test: In vitro agar dilution MIC, organism code QQ; details: Table 1B, in µg/mL (unit assumed)
Experimental: as §1, §2, §3

[13] = test system: Streptococcus pyogenes PIU 2548; test: In vitro agar dilution MIC, organism code NN; details: unit assumed
Experimental: as §1, §2, §3

[14] = test system: Staphylococcus aureus NCTC10649M; test: In vitro agar dilution MIC, organism code EE; details: Table 1B, unit assumed
Experimental: as §1, §2, §3

[15] = test system: Streptococcus pneumoniae GYR 1171; test: In vitro agar dilution MIC, organism code YY; details: Table 1B, unit assumed
Experimental: as §1, §2, §3

[16] = test system: Staphylococcus aureus CMX 553; test: In vitro agar dilution MIC, organism code FF; details: Table 1B, unit assumed
Experimental: as §1, §2, §3

[17] = test system: Micrococcus luteus ATCC 4698; test: In vitro agar dilution MIC, organism code PP; details: Table 1B, in µg/mL (unit assumed)
Experimental: as §1, §2, §3

[18] = test system: Nocardia asteroides ATCC 9970; test: In vitro agar dilution MIC, organism code VV; details: Table 1B, in µg/mL (unit assumed)
Experimental: as §1
as §2, with “comparability. Erythromycin A was used for this purpose.” for “comparability.”
as §3

[19] = test system: Haemophilis influenzae DILL AMP R; test: In vitro agar dilution MIC, organism code WW; details: unit assumed
Experimental: as §1, §2, §3

Candida albicans CCH 442 = test: In vitro agar dilution MIC, organism code TT; details: Table 1B, unit assumed
Experimental: as §1, §2, §3

[20] = test system: Streptococcus pneumoniae ATCC 6303; test: In vitro agar dilution MIC, organism code XX; details: unit assumed
Experimental: as §1, §2, §3

Escherichia coli DC-2 = test: In vitro agar dilution MIC, organism code SS; details: Table 1B, unit assumed
Experimental: as §1, §2, §3

[21] = test system: Staphylococcus aureus A5177; test: In vitro agar dilution MIC, organism code BB; details: in µg/mL (unit assumed)
Experimental: as §1, §2, §3

[22] = test system: Staphylococcus aureus 1775; test: In vitro agar dilution MIC, organism code GG; details: Table 1B, unit assumed
Experimental: as §1, §2, §3

Escherichia coli SS = test: In vitro agar dilution MIC, organism code RR; details: Table 1B, in µg/mL (unit assumed)
Experimental: as §1, §2, §3

[23] = test system: Streptococcus pyogenes 930; test: In vitro agar dilution MIC, organism code MM; details: unit assumed
Experimental: as §1, §2, §3

SMILES: CC[C@H]1OC(=O)[C@@](C)(F)C(=O)[C@H](C)[C@@H](O[C@@H]2O[C@H](C)C[C@H](N(C)C)[C@H]2O)[C@](C)(OC/C=C/c2cnc3ccc(CS(N)(=O)=O)cc3c2)C[C@@H](C)C(=O)[C@H](C)[C@H]2NC(=O)O[C@@]21C [Example 14]
MIC ([1]; Table 1B): > 100 µg/mL | MIC [2]: 0.01 µg/mL (≈ 0.0114 µM) | MIC ([3]; Table 1B): 0.01 µg/mL (≈ 0.0114 µM) | MIC [4]: 3.1 | MIC ([5]; Table 1B): 2 µg/mL (≈ 2.28 µM) | MIC [6]: 0.1 µg/mL (≈ 0.114 µM) | MIC [7]: ≤ 0.005 µg/mL | MIC ([8]; Table 1B): 0.25 µg/mL (≈ 0.285 µM) | MIC [9]: 0.1 µg/mL (≈ 0.114 µM) | MIC ([10]; Table 1B): 0.05 µg/mL (≈ 0.057 µM) | MIC [11]: 0.01 µg/mL (≈ 0.0114 µM) | MIC [12]: 0.1 | MIC (Escherichia coli JUHL): 50 | MIC ([13]; Table 1B): 0.2 µg/mL (≈ 0.228 µM) | MIC [14]: 0.1 µg/mL (≈ 0.114 µM) | MIC [15]: ≤ 0.004 µg/mL | MIC [16]: 0.1 µg/mL (≈ 0.114 µM) | MIC [17]: 0.2 | MIC [18]: 0.1 | MIC ([19]; Table 1B): 2 µg/mL (≈ 2.28 µM) | MIC (Candida albicans CCH 442): > 100 µg/mL | MIC ([20]; Table 1B): ≤ 0.004 µg/mL | MIC (Escherichia coli DC-2): 100 µg/mL (≈ 114 µM) | MIC ([21]; Table 1B): 0.1 | MIC [22]: > 100 µg/mL | MIC (Escherichia coli SS): 0.1

SMILES: CC[C@H]1OC(=O)[C@H](C)C(=O)[C@H](C)[C@@H](O[C@@H]2O[C@H](C)C[C@H](N(C)C)[C@H]2O)[C@](C)(OC)C[C@@H](C)C2=NCCN3C(=O)O[C@@]1(C)[C@H]3[C@H]2C [Standard (X is H), reference compound]
MIC ([1]; Table 1C): > 100 µg/mL | MIC ([3]; Table 1C): 0.02 µg/mL (≈ 0.0314 µM) | MIC ([5]; Table 1C): > 128 µg/mL | MIC ([8]; Table 1C): 0.5 µg/mL (≈ 0.784 µM) | MIC ([10]; Table 1C): 0.2 µg/mL (≈ 0.314 µM) | MIC ([13]; Table 1C): 0.39 µg/mL (≈ 0.611 µM) | MIC ([23]; Table 1C): > 100 µg/mL | MIC ([19]; Table 1C): 4 µg/mL (≈ 6.27 µM) | MIC ([20]; Table 1C): 0.06 µg/mL (≈ 0.0941 µM) | MIC ([21]; Table 1C): 0.2

MIC ([3]; Table 1D): 0.03 µg/mL (≈ 0.0392 µM) | MIC ([5]; Table 1D): 16 µg/mL (≈ 20.9 µM) | MIC ([8]; Table 1D): 0.25 µg/mL (≈ 0.326 µM) | MIC ([13]; Table 1D): 0.25 µg/mL (≈ 0.326 µM) | MIC ([23]; Table 1D): 1 µg/mL (≈ 1.31 µM) | MIC ([19]; Table 1D): 2 µg/mL (≈ 2.61 µM) | MIC ([20]; Table 1D): 0.03 µg/mL (≈ 0.0392 µM)
SMILES: CC[C@H]1OC(=O)[C@H](C)C(=O)[C@H](C)[C@@H](O[C@@H]2O[C@H](C)C[C@H](N(C)C)[C@H]2O)[C@](C)(OC/C=C/c2cnc3ccccc3c2)C[C@@H](C)C(=O)[C@H](C)[C@H]2NC(=O)O[C@@]21C [Standard A, reference compound]

SMILES: CC[C@H]1OC(=O)[C@H](C)C(=O)[C@H](C)[C@@H](O[C@@H]2O[C@H](C)C[C@H](N(C)C)[C@H]2O)[C@](C)(OC/C=C/c2ccccc2)C[C@@H](C)C(=O)[C@H](C)[C@H]2NC(=O)O[C@@]21C [Standard B, reference compound]
MIC ([3]; Table 1D): 0.03 µg/mL (≈ 0.042 µM) | MIC ([5]; Table 1D): 128 µg/mL (≈ 179 µM) | MIC ([8]; Table 1D): 0.25 µg/mL (≈ 0.35 µM) | MIC ([13]; Table 1D): 0.25 µg/mL (≈ 0.35 µM) | MIC ([23]; Table 1D): 64 µg/mL (≈ 89.5 µM) | MIC ([19]; Table 1D): 4 µg/mL (≈ 5.6 µM) | MIC ([20]; Table 1D): 0.03 µg/mL (≈ 0.042 µM)

MIC ([3]; Table 1D): 0.03 µg/mL (≈ 0.0391 µM) | MIC ([5]; Table 1D): 64 µg/mL (≈ 83.4 µM) | MIC ([8]; Table 1D): 0.5 µg/mL (≈ 0.652 µM) | MIC ([13]; Table 1D): 0.25 µg/mL (≈ 0.326 µM) | MIC ([23]; Table 1D): 1 µg/mL (≈ 1.3 µM) | MIC ([19]; Table 1D): 2 µg/mL (≈ 2.61 µM) | MIC ([20]; Table 1D): 0.015 µg/mL (≈ 0.0196 µM)
SMILES: CC[C@H]1OC(=O)[C@H](C)C(=O)[C@H](C)[C@@H](O[C@@H]2O[C@H](C)C[C@H](N(C)C)[C@H]2O)[C@](C)(OC/C=C/c2ccc3nccnc3c2)C[C@@H](C)C(=O)[C@H](C)[C@H]2NC(=O)O[C@@]21C [Standard C, reference compound]
